Consider 14 molecules from PubChem BioAssay (NCI).

Common to all, as to experiment: inhibition of tumour cell growth, NCI panel, 48 h
In assay [1] the test system is LOX IMVI melanoma.
Assay [2] has as its system SR leukemia.
Assay [3] deals with SK-MEL-2 melanoma.
The test system of assay [4] is SF-295 CNS.
Assay [5] relates to EKVX NSCLC.
In assay [6] the test system is M14 melanoma.
Assay [7] relates to SK-MEL-28 melanoma.
The test system of assay [8] is ACHN renal.
Assay [9] has as its system MALME-3M melanoma.
Assay [10] has as its system HCT-15 colon.

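Values below derive from 48-hour exposures of cells grown in 96-well plates, with endpoints linearly interpolated between the two concentrations bracketing the appropriate inhibition level. TGI: total growth inhibition.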

With `CN(C)c1nc(N(C)C)nc(N(C)C)n1`, the TGI in [1], in [2], in assay [3], in [4], in [5] and in assay [6] was greater than 150 µM in each case. Moreover, the TGI in assay [7], in [8], in assay [9] and in assay [10] was greater than 150 µM in each case.
Consider `Cc1ccc(Nc2nc(=S)[nH]c3[nH]ncc23)cc1`, for which the TGI in [1], in [2], in assay [3], in [4], in [5] and in [6] was greater than 100 µM in each case. Moreover, the TGI in assay [7], in assay [8], in [9] and in assay [10] was greater than 100 µM each time.
Regarding `O=C(c1ccccc1)c1ccc(C(c2c(O)c3ccccc3oc2=O)c2c(O)c3ccccc3oc2=O)cc1`, the TGI in [1] was greater than 100 µM; in assay [2], 59.3 µM; in assay [3] it was greater than 71.3 µM; in assay [4] it was 53.3 µM; in assay [5], 72.3 µM; in assay [6], 63.3 µM. Also, the TGI is greater than 73.3 µM in assay [7], 48.6 µM in assay [8], 37.6 µM in assay [9] and greater than 95.3 µM in assay [10].
For `C=C(O)c1ccccc1C#Cc1ccccc1C(=O)OC`, the TGI in assay [1], in assay [2], in assay [3], in assay [4], in assay [5] and in [6] was greater than 10 µM each time. The TGI in [7], in assay [8], in assay [9] and in [10] was greater than 10 µM throughout.
`C=C[C@@H]1OC(=O)O[C@H]1CO`: the TGI in [1], in assay [2], in assay [3], in [4], in assay [5] and in assay [6] was greater than 100 µM throughout. The TGI in assay [7], in [8], in assay [9] and in assay [10] was greater than 100 µM in each case.
`COc1ccc(/C=C2\C=Cc3ccccc32)cc1OC`: the TGI in [1], in [2], in assay [3], in assay [4], in assay [5] and in assay [6] was greater than 100 µM throughout. For the same molecule, the TGI in assay [7], in [8], in assay [9] and in assay [10] was greater than 100 µM each time.
Regarding `O=C(OCCN=C1c2ccccc2CCc2ccccc21)c1cc([N+](=O)[O-])cc([N+](=O)[O-])c1`, the TGI was greater than 31.6 µM in assay [1]; 5.5 µM in [2]; greater than 31.6 µM in [3]; greater than 31.6 µM in [4]; greater than 31.6 µM in assay [5]; greater than 31.6 µM in assay [6]. Also, the TGI in assay [7], in assay [8], in assay [9] and in [10] was greater than 31.6 µM throughout.
For the molecule `CCCC1NC(=O)C(CC(C)C)NC(=O)c2cccc(n2)C(=O)NC(CC(C)C)C(=O)NC(CCC)C(=O)NC(C(=O)OC)CCCCNC1=O` (stereo not drawn), the TGI was 44.4 µM in assay [1]; 65.6 µM in assay [2]; greater than 100 µM in assay [3]; greater than 100 µM in assay [4]; 90.9 µM in [5]; greater than 100 µM in assay [6]. Also, the TGI in assay [7] was 78.9 µM; in [9] it was 62.8 µM; in assay [10] it was greater than 100 µM.
As for `CN(C1=NCCO1)c1cccc2ccccc12`, the TGI in assay [1], in assay [2], in [3], in [4], in [5] and in assay [6] was greater than 10 µM throughout. Also, the TGI in [7], in assay [8], in [9] and in [10] was greater than 10 µM throughout.
Turning to `CCOP(=O)(OCC)C(NC(=O)OCC(Cl)(Cl)Cl)n1nnc(C(=O)OC)c1C(=O)OC` (stereo not drawn), the TGI in [1], in assay [2], in [3], in [4], in [5] and in assay [6] was greater than 100 µM each time. The TGI in assay [7], in [8], in assay [9] and in assay [10] was greater than 100 µM in each case.
For `CC(=O)/C(C=Nc1c(C)n(C)n(-c2ccccc2)c1=O)=C(/C)O`, the TGI in assay [1], in [2], in assay [3], in assay [4], in [5] and in [6] was greater than 100 µM each time. Moreover, the TGI in assay [8], in assay [9] and in assay [10] was greater than 100 µM in each case.
For `Clc1ccc(N=C/C=C/Nc2ccc(Cl)cn2)nc1`, the TGI in [1] came to 19.8 µM; in assay [2], 6.69 µM; in assay [3], 29.2 µM; in assay [4], 30.6 µM; in [5], 13.9 µM; in assay [6] it was 30.2 µM. The TGI is 32.9 µM in [7], 25.1 µM in assay [8], 31.2 µM in assay [9] and 13 µM in assay [10].
Consider `CSc1ccc2c(cc1=O)[C@@H](NC(C)=O)CCc1cc(O)c(O)c(O)c1-2`, for which the TGI in [1] is greater than 100 µM; in assay [2], greater than 100 µM; in assay [3] it was greater than 100 µM; in assay [4], 31.2 µM; in assay [5], greater than 100 µM; in assay [6], 36 µM. Moreover, the TGI is greater than 100 µM in [7], 46.8 µM in assay [8], greater than 100 µM in [9] and 34.2 µM in assay [10].
As for `CC(=O)N=C(N=Nc1c(O)[nH]c2ccc(C)cc12)NC(C)=O`, the TGI in assay [1], in assay [2], in assay [3], in assay [4], in [5] and in [6] was greater than 100 µM throughout. The TGI in [7], in [8], in [9] and in assay [10] was greater than 100 µM each time.
